Results reported in patent publication US8546409B2, “Methods of treatment for solid tumors” (priority 2009, dated 2013).

How the values were obtained:
Assay type in all cases: cell-based
[1] = system: MDA-MB-435; assay: NCI panel growth inhibition, MDA-MB-435; details: Homo sapiens, Breast Cancer
From the text: (§1) Compound I has also been tested in a battery of tumor cell assays known as the NCI panel.

[2] = system: UACC-257; assay: NCI panel growth inhibition, UACC-257; details: Homo sapiens, Melanoma
From the text: as §1

[3] = system: HOP-62; assay: NCI panel growth inhibition, HOP-62; details: Homo sapiens, Non-Small Cell Lung Cancer
From the text: as §1

[4] = system: DU-145; assay: NCI panel growth inhibition, DU-145; details: Homo sapiens, Prostate
From the text: as §1

[5] = system: SF-268; assay: NCI panel growth inhibition, SF-268; details: Homo sapiens, CNS Cancer
From the text: as §1

[6] = system: NCI-H522; assay: NCI panel growth inhibition, NCI-H522; details: Homo sapiens, Non-Small Cell Lung Cancer
From the text: as §1

[7] = system: SF-539; assay: NCI panel growth inhibition, SF-539; details: Homo sapiens, CNS Cancer
From the text: as §1

[8] = system: SW-620; assay: NCI panel growth inhibition, SW-620; details: Homo sapiens, Colon Cancer
From the text: as §1

[9] = system: HCC-2998; assay: NCI panel growth inhibition, HCC-2998; details: Homo sapiens, Colon Cancer
From the text: as §1

[10] = system: HT29; assay: NCI panel growth inhibition, HT29; details: Homo sapiens, HT-29, Colon Cancer
From the text: as §1

[11] = system: NCI-H460; assay: NCI panel growth inhibition, NCI-H460; details: Homo sapiens, Non-Small Cell Lung Cancer
From the text: as §1

[12] = system: A498; assay: NCI panel growth inhibition, A498; details: Homo sapiens, Renal
From the text: as §1

[13] = system: UO-31; assay: NCI panel growth inhibition, UO-31; details: Homo sapiens, Renal
From the text: as §1

[14] = system: NCI panel cancer cell lines; assay: NCI panel of tumor cell assays, summary over cell lines; details: all NCI panel cell lines
From the text: Compound I has also been tested in a battery of tumor cell assays known as the NCI panel. […] Using this measure, 1.8% of cell lines were particularly sensitive to Compound B at this level, while 39% were particularly sensitive to Compound I at the same concentration. […] Loss of PTEN activity often occurs in cancers, and enhances the sensitivity of a tumor to PI3K inhibitors. […] The following Table summarizes the cell lines found to be sensitive to Compound I and the known mutations in those cell lines.

[15] = system: 786-0; assay: NCI panel growth inhibition, 786-0; details: Homo sapiens, Renal
From the text: as §1

[16] = system: OVCAR-4; assay: NCI panel growth inhibition, OVCAR-4; details: Homo sapiens, Ovarian
From the text: as §1

[17] = system: A549; assay: NCI panel growth inhibition, A549; details: Homo sapiens, Non-Small Cell Lung Cancer
From the text: as §1

[18] = system: PC-3; assay: NCI panel growth inhibition, PC-3; details: Homo sapiens, Prostate
From the text: as §1

[19] = system: OVCAR-8; assay: NCI panel growth inhibition, OVCAR-8; details: Homo sapiens, Ovarian
From the text: as §1

[20] = system: HOP-92; assay: NCI panel growth inhibition, HOP-92; details: Homo sapiens, Non-Small Cell Lung Cancer
From the text: as §1

[21] = system: SK-OV-3; assay: NCI panel growth inhibition, SK-OV-3; details: Homo sapiens, Ovarian
From the text: as §1

[22] = system: ACHN; assay: NCI panel growth inhibition, ACHN; details: Homo sapiens, Renal
From the text: as §1

[23] = system: RXF 393; assay: NCI panel growth inhibition, RXF 393; details: Homo sapiens, Renal
From the text: as §1

[24] = system: T-47D; assay: NCI panel growth inhibition, T-47D; details: Homo sapiens, T47D, Breast Cancer
From the text: as §1

[25] = system: SK-MEL-2; assay: NCI panel growth inhibition, SK-MEL-2; details: Homo sapiens, Melanoma
From the text: as §1

[26] = system: ADR-RES; assay: NCI panel growth inhibition, ADR-RES; details: Breast Cancer
From the text: as §1

[27] = system: HS 578T; assay: NCI panel growth inhibition, HS 578T; details: Homo sapiens, Breast Cancer
From the text: as §1

[28] = system: NCI-H322M; assay: NCI panel growth inhibition, NCI-H322M; details: Homo sapiens, Non-Small Cell Lung Cancer
From the text: as §1

[29] = system: U251; assay: NCI panel growth inhibition, U251; details: Homo sapiens, U-251, CNS Cancer
From the text: as §1

[30] = system: COLO 205; assay: NCI panel growth inhibition, COLO 205; details: Homo sapiens, Colon Cancer
From the text: as §1

[31] = system: BT-549; assay: NCI panel growth inhibition, BT-549; details: Homo sapiens, Breast Cancer
From the text: as §1

[32] = system: MDA-MB-468; assay: NCI panel growth inhibition, MDA-MB-468; details: Homo sapiens, Breast Cancer
From the text: as §1

[33] = system: SK-MEL-28; assay: NCI panel growth inhibition, SK-MEL-28; details: Homo sapiens, Melanoma
From the text: as §1

[34] = system: MCF7; assay: NCI panel growth inhibition, MCF7; details: Homo sapiens, Breast Cancer
From the text: as §1

[35] = system: UACC-62; assay: NCI panel growth inhibition, UACC-62; details: Homo sapiens, Melanoma
From the text: as §1

[36] = system: IGROV1; assay: NCI panel growth inhibition, IGROV1; details: Homo sapiens, IGROV-1, Ovarian
From the text: as §1

[37] = system: EKVX; assay: NCI panel growth inhibition, EKVX; details: Homo sapiens, Non-Small Cell Lung Cancer
From the text: as §1

[38] = system: SF-295; assay: NCI panel growth inhibition, SF-295; details: Homo sapiens, CNS Cancer
From the text: as §1

[39] = system: NCI-H226; assay: NCI panel growth inhibition, NCI-H226; details: Homo sapiens, Non-Small Cell Lung Cancer
From the text: as §1

[40] = system: SNB-19; assay: NCI panel growth inhibition, SNB-19; details: Homo sapiens, CNS Cancer
From the text: as §1

[41] = system: OVCAR-3; assay: NCI panel growth inhibition, OVCAR-3; details: Homo sapiens, Ovarian
From the text: as §1

[42] = system: CAKI-1; assay: NCI panel growth inhibition, CAKI-1; details: Homo sapiens, Renal
From the text: as §1

[43] = system: OVCAR-5; assay: NCI panel growth inhibition, OVCAR-5; details: Homo sapiens, Ovarian
From the text: as §1

[44] = system: NCI-H23; assay: NCI panel growth inhibition, NCI-H23; details: Homo sapiens, Non-Small Cell Lung Cancer
From the text: as §1

[45] = system: M14; assay: NCI panel growth inhibition, M14; details: Homo sapiens, Melanoma
From the text: as §1

[46] = system: SNB-75; assay: NCI panel growth inhibition, SNB-75; details: Homo sapiens, CNS Cancer
From the text: as §1

[47] = system: KM12; assay: NCI panel growth inhibition, KM12; details: Homo sapiens, Colon Cancer
From the text: as §1

[48] = system: LOX IMVI; assay: NCI panel growth inhibition, LOX IMVI; details: Homo sapiens, Melanoma
From the text: as §1

[49] = system: HCT-15; assay: NCI panel growth inhibition, HCT-15; details: Homo sapiens, Colon Cancer
From the text: as §1

[50] = system: HCT-116; assay: NCI panel growth inhibition, HCT-116; details: Homo sapiens, Colon Cancer
From the text: as §1

[51] = system: TK-10; assay: NCI panel growth inhibition, TK-10; details: Homo sapiens, Renal
From the text: as §1

[52] = system: SN12C; assay: NCI panel growth inhibition, SN12C; details: Homo sapiens, Renal
From the text: as §1

[53] = system: MALME-3M; assay: NCI panel growth inhibition, MALME-3M; details: Homo sapiens, Melanoma
From the text: as §1

[54] = system: SK-MEL-5; assay: NCI panel growth inhibition, SK-MEL-5; details: Homo sapiens, Melanoma
From the text: as §1

[55] = system: MDA-MB-231; assay: NCI panel growth inhibition, MDA-MB-231; details: Homo sapiens, Breast Cancer
From the text: as §1

## CC[C@H](Nc1ncnc2[nH]cnc12)c1nc2cccc(F)c2c(=O)n1-c1ccccc1 [Compound B, reference compound]
[1]
  GI50: 16.4 µM
[2]
  GI50: 33.5 µM
[3]
  GI50: 39.7 µM
[4]
  GI50: 43.8 µM
[5]
  GI50: 29.8 µM
[6]
  GI50: 52.7 µM
[7]
  GI50: 28.6 µM
[8]
  GI50: 86.4 µM
[9]
  GI50: 53.3 µM
[10]
  GI50: 39.1 µM
[11]
  GI50: 34.7 µM
[12]
  GI50: 2.38 µM
[13]
  GI50: 5.32 µM
[14]
  Cell lines particularly sensitive (GI50 of 2 micromolar or less): 1.8%
[15]
  GI50: 5.48 µM
[16]
  GI50: 100 µM
[17]
  GI50: 50.4 µM
[18]
  GI50: 12 µM
[19]
  GI50: 96 µM
[20]
  GI50: 34.8 µM
[21]
  GI50: 13.8 µM
[22]
  GI50: 24.4 µM
[23]
  GI50: 74.2 µM
[24]
  GI50: 3.18 µM
[25]
  GI50: 100 µM
[26]
  GI50: 77.9 µM
[27]
  GI50: 6.91 µM
[28]
  GI50: 32.2 µM
[29]
  GI50: 70.4 µM
[30]
  GI50: 30.1 µM
[31]
  GI50: 14.3 µM
[32]
  GI50: 13.6 µM
[33]
  GI50: 38.6 µM
[34]
  GI50: 7.08 µM
[35]
  GI50: 4.2 µM
[36]
  GI50: 3.54 µM
[37]
  GI50: 28.2 µM
[38]
  GI50: 8.18 µM
[39]
  GI50: 100 µM
[40]
  GI50: 54.8 µM
[41]
  GI50: 15.5 µM
[42]
  GI50: 13.4 µM
[43]
  GI50: 40.1 µM
[44]
  GI50: 100 µM
[45]
  GI50: 58.4 µM
[46]
  GI50: 2.96 µM
[47]
  GI50: 54.1 µM
[48]
  GI50: 31.1 µM
[49]
  GI50: 48.4 µM
[50]
  GI50: 54.3 µM
[51]
  GI50: 31.7 µM
[52]
  GI50: 11 µM
[53]
  GI50: 31.6 µM
[54]
  GI50: 32.9 µM
[55]
  GI50: 100 µM
